# Data published in patent publication US20110053996A1, “Use of phenyltriazoles for controlling insects and spider mites by watering, droplet application or dip application or by treating seed” (Bayer CropScience AG, priority 2009, published 2011).
# What was measured:
# [1] = tested on: Tetranychus urticae; experiment: Tetranychus urticae test on bush beans; drench application; type: in vivo; settings: bush bean plants, 0.25 mg of ai/plant, 14 days after infestation
# Protocol: (§1) To produce a suitable preparation of active compound, 1 part by weight of active compound is mixed with the stated amounts of solvent and emulsifier, and the concentrate is diluted with water to the desired concentration.
# Bush bean plants (Phaseolus vulgaris) are watered with the respective product solution. The stated concentration refers to the amount of active compound per plant. After about 1 week, the treated plants are infested with the greenhouse red spider mite (Tetranychus urticae).
# After 2 weeks, the effect in % is determined. 100% means that all of the spider mites have been killed; 0% means that none of the spider mites have been killed.
# [2] = tested on: Liriomyza trifolii; experiment: Liriomyza trifolii test on bush beans; drench application; type: in vivo; settings: bush bean plants, 0.5 mg of ai/plant, 14 days after infestation
# Protocol: as §1
# Bush bean plants (Phaseolus vulgaris) are watered with the respective product solution. The stated concentration refers to the amount of active compound per plant. After about 1 week, the treated plants are infested with the leaf-mining fly (Liriomyza trifolii).
# After 2 weeks, the effect in % is determined. 100% means that all of the leaf-mining flies have been killed; 0% means that none of the leaf-mining flies have been killed.
compound,measurement,setting,value
Cc1cc(F)c(-n2nc(C(F)(F)F)nc2N)cc1[S+]([O-])CC(F)(F)F (centres unmarked) [(I-4)],% Activity (according to Abbott),[1],100%
same,% Activity (according to Abbott),[2],100%
